The values below come from ChEMBL document CHEMBL1857833, “Screening and optimization of specific chemical series against human African Trypanosomiasis (HAT)”.

In brackets after ≈: the same amount, converted by molar mass. Several values for one entry are separate records, joined by “and”; a condition that tells them apart may be missing. Identical values can stand only once.

Usually IC50 stands for the concentration that inhibits the measured activity by half. For orientation: Papp A→B means how fast a substance crosses the layer from the apical side. As usually defined, the solubility (kinetic) is the concentration staying in solution when a stock, usually in DMSO, is diluted into the medium. As usually defined, the chromatographic logD is a lipophilicity value derived from retention on a column. One may read the half-life as how long it takes for the measured level to halve. The low end stands for rapid decline, the high end for slow decline. The term logD denotes lipophilicity at a set pH, counting ionised and neutral species.

In data set [1] the test system is Trypanosoma brucei. Description: DNDI: Inhibition of Human African Trypanosomiasis, SBRI 427, in vitro. The data set is classed as functional, organism-based.
Data set [2] addresses T1, MDR1 (ABCB1) (Homo sapiens, UniProt P08183). Description: DNDI: Apparent permeability from apical to basolateral side of the MDCK cell transfected with human MDR1after 60 mins at a concentration of 3uM. It is filed as ADME, cell-based, Canis lupus familiaris. As to conditions: dog, MDCK-MDR1.
Data set [3] can be described thus: (§1) DNDI: Cytotoxicity against L929 mouse fibroblasts, 72 hour. The data set is classed as toxicity, cell-based. To be noted: mouse, L929 mouse fibroblasts.
Data set [4] deals with T1, MDR1 (ABCB1). Description: DNDI: % of compound recovered from apical to basolateral permeability assay in MDCK cells transfected with human MDR1 after 60 mins at a concentration of 3uM in the presence of GF120918. As to conditions: dog, MDCK-MDR1, with GF120918 (concentration not stated). The data set is classed as ADME, cell-based, Canis lupus familiaris.
The nature of data set [5]: DNDI: Solubility in phosphate buffered saline at pH7.4 measured by nephelometry at room temperature (NEPH-RT). It is filed as physicochemical. To be noted: pH 7.4.
Data set [6] deals with T1, MDR1 (ABCB1). Description: DNDI: % of compound recovered from apical to basolateral permeability assay in MDCK cells transfected with human MDR1 after 60 mins at a concentration of 3uM. It is filed as ADME, cell-based, Canis lupus familiaris. As to conditions: dog.
The nature of data set [7]: DNDI: Lipophilicity measured in Chromatographic hydrophobicity index (CHI) assay, pH 7.4. It is filed as physicochemical. As to conditions: buffer.
The nature of data set [8]: DNDI: half-life in mouse S9 microsomes at a concentration of 1uM. It is filed as ADME, subcellular, Liver, S9 fraction.
Data set [9] is described as follows: DNDI: half life in human liver microsomes at a concentration of 10uM. The data set is classed as ADME, Microsome. Background: Liver microsomes are a subcellular fraction often used to study metabolism.
The nature of data set [10]: DNDI: half life in mouse liver microsomes at a concentration of 10uM. It is filed as ADME, Microsome.
The test system of data set [11] is Trypanosoma brucei. The data set is described as follows: DNDI: Mean survival time in days (MSD) of mice after intraperitoneal injection of Human African Trypanosomiasis (HAT), EATRO 110, in vivo at 20 mg/kg/day for 4 days. The data set is classed as functional, Mus musculus.
Data set [12] can be described thus: DNDI: Cytotoxicity against L-6 rat myoblasts from skeletal muscle cells. It is filed as toxicity, cell-based, L6. As to conditions: L-6 rat skeletal muscle myoblasts.
For data set [13] the following is noted: mouse, microsomes, 1 µM.
Description: (§2) DNDI: in vitro intrinsic clearance in mouse liver microsomes at a concentration of 1uM
The nature of data set [14]: DNDI: in vitro intrinsic clearance in human liver microsomes at a concentration of 10uM. The data set is classed as ADME, Microsome.
Data set [15] in a line: DNDI: Cytotoxicity against L929 mouse fibroblasts, CYTO-SP, 24 hour. It is filed as toxicity, cell-based. To be noted: mouse, L929 mouse fibroblasts.
The test system of data set [16] is Trypanosoma brucei rhodesiense. The data set is described as follows: DNDI: Inhibition of Human African Trypanosomiasis (HAT), STIB 900, in vitro. It is filed as functional, organism-based.
Data set [17] can be described thus: DNDI: in vitro intrinsic clearance in mouse liver microsomes at a concentration of 10uM. It is filed as ADME, Microsome. To be noted: read-out: CLint in vitro.
The test system of the next data set is Leishmania donovani. Description: DNDI: Inhibition of formation of Leishmania donovani (strain MHOM/ET/67/L82) axenic amastigotes, in vitro. The data set is classed as functional, organism-based.
For a further data set, the system named is Plasmodium falciparum. Description: DNDI: Inhibition of the malaria parasite Plasmodium falciparum, in vitro. The data set is classed as functional, organism-based. To be noted: K1.
Data set [18] can be described thus: DNDI: Solubility in phosphate buffered saline at pH7.4 measured by optical density (turbidimetry) at room temperature (OD-RT). It is filed as physicochemical. As to conditions: pH 7.4.
The test system of data set [19] is Trypanosoma brucei. The data set is described as follows: DNDI: Mean survival time in days (MSD) of mice after intraperitoneal injection of Human African Trypanosomiasis (HAT), EATRO 110, in vivo at 5 mg/kg/day for 4 days. The data set is classed as functional, Mus musculus.
Data set [20] can be described thus: in vitro. As to conditions: mouse, t (1 / 2).
Description: (§3) DNDI: half life in mouse liver microsomes at a concentration of 1uM
In another data set the test system is Trypanosoma cruzi. The data set is described as follows: DNDI: Inhibition of Chagas Disease parasite Trypanosoma cruzi (Tulahuen LacZ, Clone C4), in vitro. The data set is classed as functional, organism-based.
For data set [21], the system named is Trypanosoma brucei. The data set is described as follows: DNDI: Inhibition of Human African Trypanosomiasis, Cross 22, in vitro. The data set is classed as functional, organism-based.
A short description of data set [22]: in vitro. As to conditions: human, t (1 / 2).
Description: DNDI: half life in human liver microsomes at a concentration of 1uM
A short description of data set [23]: in vitro. As to conditions: human, CLint in vitro.
Description: DNDI: in vitro intrinsic clearance in human liver microsomes at a concentration of 1uM
A further data set has as its system L929. The data set is described as §1. It is filed as toxicity, cell-based. To be noted: l929.
Data set [24] has as its target T1, MDR1 (ABCB1). The data set is described as follows: DNDI: Efflux ratio for permeability from basolateral to apical side to apical to basolateral side of MDCK cells transfected with human MDR1. It is filed as ADME, cell-based, Canis lupus familiaris. To be noted: dog, MDCK-MDR1; read-out: Calculated Ratio.
The nature of data set [25]: in vitro. To be noted: mouse, liver microsomes.
Description: as §2
For data set [26] the following is noted: mouse, microsomes, 1 µM. This is another data set of the same source.
Description: as §3
The mark [27] stands for this setting: Trypanosoma brucei, SBRI 427, read-out: IC50.

T1 sequence (P08183 whole entry): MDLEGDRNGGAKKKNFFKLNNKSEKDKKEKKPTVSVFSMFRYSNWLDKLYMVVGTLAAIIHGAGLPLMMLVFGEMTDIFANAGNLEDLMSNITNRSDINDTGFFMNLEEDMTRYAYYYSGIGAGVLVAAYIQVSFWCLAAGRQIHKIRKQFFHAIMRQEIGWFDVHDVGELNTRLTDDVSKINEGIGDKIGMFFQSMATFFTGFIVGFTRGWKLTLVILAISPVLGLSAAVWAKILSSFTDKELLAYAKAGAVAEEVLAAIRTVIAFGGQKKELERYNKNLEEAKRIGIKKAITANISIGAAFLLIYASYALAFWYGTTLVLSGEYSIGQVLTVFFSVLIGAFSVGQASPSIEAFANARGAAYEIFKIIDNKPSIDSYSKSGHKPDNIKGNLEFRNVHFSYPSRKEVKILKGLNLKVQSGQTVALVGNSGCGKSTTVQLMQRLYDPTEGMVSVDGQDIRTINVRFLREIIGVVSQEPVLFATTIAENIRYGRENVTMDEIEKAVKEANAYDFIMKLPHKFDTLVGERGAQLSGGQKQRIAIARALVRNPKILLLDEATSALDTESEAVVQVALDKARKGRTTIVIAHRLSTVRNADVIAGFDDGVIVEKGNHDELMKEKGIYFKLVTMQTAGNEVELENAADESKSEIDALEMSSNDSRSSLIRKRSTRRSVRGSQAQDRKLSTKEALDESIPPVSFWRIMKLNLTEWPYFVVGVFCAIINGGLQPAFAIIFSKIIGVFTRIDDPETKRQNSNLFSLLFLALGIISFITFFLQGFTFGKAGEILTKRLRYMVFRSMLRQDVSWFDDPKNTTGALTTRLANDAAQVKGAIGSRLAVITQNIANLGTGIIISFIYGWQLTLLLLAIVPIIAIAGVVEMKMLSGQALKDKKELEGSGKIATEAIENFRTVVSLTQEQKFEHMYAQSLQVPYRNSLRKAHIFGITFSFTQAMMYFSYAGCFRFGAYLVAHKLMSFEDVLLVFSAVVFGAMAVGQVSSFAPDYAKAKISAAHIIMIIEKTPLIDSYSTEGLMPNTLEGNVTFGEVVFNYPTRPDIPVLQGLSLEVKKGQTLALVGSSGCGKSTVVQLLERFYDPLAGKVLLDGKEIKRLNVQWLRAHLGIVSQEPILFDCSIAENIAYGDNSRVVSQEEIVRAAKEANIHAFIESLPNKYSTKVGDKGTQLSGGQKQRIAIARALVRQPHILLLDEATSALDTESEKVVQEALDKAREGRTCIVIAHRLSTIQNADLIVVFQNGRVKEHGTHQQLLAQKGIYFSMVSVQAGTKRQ

As for `CN(C)CCNc1cc(-c2ccccc2)nc2cc(-c3ccc(F)cc3)nn12`, the IC50 in the data set on Trypanosoma brucei [1] (setting [27]) was found to be 1.53 µg/mL (≈ 4.08 µM). Also, the Papp A→B at 1 h, 3 µM at MDR1 (ABCB1) [2] amounted to 8.84 ×10⁻⁶ cm/s. Also, the IC50 at 72 h in [3] was > 10 µg/mL. Also, the recovery at 1 h, 3 µM is 70% at MDR1 (ABCB1) [4] and 100% at MDR1 (ABCB1) [6]. Moreover, the solubility (kinetic) in data set [5] amounted to 25 µM (≈ 9.39 µg/mL). In [7], this compound registered a chromatographic logD of 5.2. Moreover, the half-life at 1 µM in data set [8] is > 350 min.
Turning to `O/N=C(\NCC1CC1)c1ccccc1-c1ccccc1`, the half-life at 10 µM in data set [9] amounted to 633 min; in data set [10], 25 min. Also, the IC50 is 1.15 µg/mL (≈ 4.32 µM) in the data set on Trypanosoma brucei [1] (setting [27]); 72.3 µg/mL (≈ 271 µM) in data set [12]; 8.1 µg/mL (≈ 30.4 µM) in data set [16]; 32.3 µg/mL (≈ 121 µM) in the data set on Leishmania donovani; 3.14 µg/mL (≈ 11.8 µM) in the data set with Plasmodium falciparum; > 30 µg/mL in the data set on Trypanosoma cruzi. Also, the MSD in the data set with Trypanosoma brucei [11] is 1 days; in the data set on Trypanosoma brucei [19] it was 4 days. Also, the IC50 at 72 h in data set [3] was > 10 µg/mL. The results for the CLint in vitro in data set [13] and in [14] were 93 µL/min/mg and 5 µL/min/mg, respectively. For the same compound, the solubility (kinetic) in data set [5] and in data set [18] was > 200 µM throughout. Also, the IC50 at 24 h in [15] was > 50 µg/mL. In data set [17], the microsomal CLint at 10 µM was 117 µL/min/mg. The compound also returned a chromatographic logD in data set [7] of 4.04. The compound further returned a logD in data set [7] of 3.96. In “in vitro [20]” (microsomes), this compound came in with a half-life at 1 µM of 9 min.
`CCCCc1ccc(-c2nc(CNC3CCCCCC3)co2)cc1`: the IC50 with Trypanosoma brucei [21] was 0.4 µg/mL (≈ 1.23 µM); with Trypanosoma brucei [1], 0.18 µg/mL and 0.33 µg/mL; with Trypanosoma brucei [1] (setting [27]) it was 0.36 µg/mL (≈ 1.1 µM); in data set [12], 2.85 µg/mL (≈ 8.73 µM); in data set [16] it was 0.383 µg/mL (≈ 1.17 µM); with Leishmania donovani, 10.1 µg/mL (≈ 30.8 µM). For the same compound, the figures for the IC50 with Plasmodium falciparum and with Trypanosoma cruzi were 0.739 µg/mL (≈ 2.26 µM) and 1.43 µg/mL (≈ 4.38 µM), respectively. The MSD with Trypanosoma brucei [11] is 3.5 days; in the data set on Trypanosoma brucei [19] it was 4 days. Also, half-maximal inhibition in [3] (IC50 at 72 h) required 1.23 µg/mL (≈ 3.77 µM). Besides, the kinetic solubility in data set [5] amounted to 13 µM (≈ 4.24 µg/mL). Further, the IC50 at 24 h in data set [15] is > 50 µg/mL. The compound also displayed a chromatographic logD in data set [7] of 5.49. Further, the half-life at 1 µM in “in vitro [22]” (microsomes) turned out to be 48 min. Further, the microsomal CLint at 1 µM in “in vitro [23]” (microsomes) was 18 µL/min/mg.
As for `CCCCCC(C)NCc1coc(-c2ccc(OC(C)C)cc2)n1` (centres undefined), the half-life at 10 µM in data set [9] amounted to 78 min; in data set [10], 81 min. Moreover, the IC50 with Trypanosoma brucei [1] (setting [27]) is 1.07 µg/mL (≈ 3.24 µM); in the data set on L929, 3.42 µg/mL (≈ 10.3 µM). Further, the IC50 at 72 h in data set [3] worked out at 2.58 µg/mL (≈ 7.81 µM). Further, the CLint in vitro is 24 µL/min/mg in data set [13] and 37 µL/min/mg in [14]. Moreover, in [15], the IC50 at 24 h was > 50 µg/mL. Also, the microsomal CLint at 10 µM in [17] is 36 µL/min/mg. In [18], this compound returned a kinetic solubility of 12.5 µM (≈ 4.13 µg/mL). This compound came in with a chromatographic logD in data set [7] of 4.56. In addition, in the data set “in vitro [20]” (microsomes), the half-life at 1 µM was determined as 35 min.
Regarding `Cc1cc(NCCN(C)C)n2nc(-c3cccc(F)c3)cc2n1`, in the data set on Trypanosoma brucei [1] (setting [27]), the IC50 was > 5 µg/mL. Moreover, the Papp A→B at 1 h, 3 µM on MDR1 (ABCB1) [2] turned out to be 46.6 ×10⁻⁶ cm/s. The IC50 at 72 h in data set [3] was > 10 µg/mL. For the same compound, the recovery at 1 h, 3 µM is 108% at MDR1 (ABCB1) [4] and 97% at MDR1 (ABCB1) [6]. Further, the kinetic solubility in [5] stood at 100 µM (≈ 31.3 µg/mL). Also, on MDR1 (ABCB1) [24], the efflux ratio is 0.14. The compound also showed a chromatographic logD in data set [7] of 4.09. Further, the half-life at 1 µM in [8] worked out at 19 min.
For `CCCCc1ccc(-c2nc(CNCC(C)(C)CN(C)C)co2)cc1`, the IC50 came to 1.55 µg/mL (≈ 4.51 µM) in the data set on Trypanosoma brucei [1] (setting [27]) and 2.73 µg/mL (≈ 7.95 µM) in the data set with L929. Further, in data set [3], the IC50 at 72 h turned out to be 4.92 µg/mL (≈ 14.3 µM).
Consider `O/N=C(\Nc1ccccc1)c1ccccc1-c1ccccc1`, for which, in the data set on Trypanosoma brucei [1] (setting [27]), the IC50 was 4.39 µg/mL (≈ 15.2 µM). Besides, the MSD in the data set with Trypanosoma brucei [11] came out at 4 days. In data set [13], this compound showed a CLint in vitro of 352 µL/min/mg. The compound further returned a kinetic solubility in data set [5] of 25 µM (≈ 7.21 µg/mL). This compound also came in with an IC50 at 24 h in data set [15] of 36.9 µg/mL (≈ 128 µM). Also, the microsomal CLint at 1 µM in the data set “in vitro [25]” is 338 µL/min/mg; in the data set “in vitro [23]” (liver microsomes) it was 8 µL/min/mg. Moreover, in data set [7], the chromatographic logD was found to be 4.32. Also, the half-life at 1 µM in “in vitro [20]” (liver microsomes) was 3 min; in “in vitro [22]” (liver microsomes), 112 min. For the same compound, in data set [26], the “t (1 / 2)” value was found to be 2 min.
